Experimental data: publication PMC7112222, “Investigation of pyrimidine nucleoside analogues as chemical probes to assess compound effects on the proliferation of Trypanosoma cruzi intracellular parasites” (PLoS Neglected Tropical Diseases, 2020)
Where two headings read alike, the source gives them in different places.

Assays:
[1] = system: T. cruzi intracellular amastigotes; experiment: Detection of T. cruzi replication following exposure to inhibitors (EdU incorporation vs Hoechst); assay type: cell-based, Trypanosoma cruzi; details: for IC50: 48 hours exposure, mean ± SD
Procedure: The addition of host cells, parasites and compounds were as described for the T. cruzi image based method previously reported. […] Addition of nuclear and cytoplasmic dyes was undertaken as previously reported and images captured on an Opera confocal image-based system at 20x magnification. Image analysis was performed with a script developed in Columbus software (CHEMICAL LABEL INCORPORATION SCRIPT). Control wells were also imaged at an increased, 60x magnification to show the distribution of staining and the structure of the parasites within host cells. Eight background control wells consisted of infected host cells, fixed and exposed to Hoechst and the click chemistry cocktail, without the addition of the chemical probe EdU. […] All images taken were not modified and were taken on an Opera, confocal image-based reader.

[2] = system: T. cruzi intracellular amastigotes; experiment: Image-based assay of the number of T. cruzi infected cells (intracellular amastigotes in 3T3 host cells); assay type: cell-based, Trypanosoma cruzi; details: for T. cruzi Wash off IC50 value: compound wash off, further 72 hours without compound; for inhibition at 183 µM: read-out: inhibition of T. cruzi growth at highest test concentration
Procedure: (§1) Parasites and host cells were maintained as outlined previously. Briefly, host 3T3 fibroblasts (ATCC, CCL-92) were grown in RPMI medium (Thermo Fisher Scientific, USA) with no phenol red, supplemented with 10% FBS (Thermo Fisher Scientific, USA) and incubated at 37°C in 5% CO2. Host cells were harvested at 70% confluency and were split every 2–3 days in 175 cm^2 flasks. 3T3 cells were cultured up to passage 7 as contact inhibition was reduced or lost at higher passages. Prior to infection with T. cruzi trypomastigotes, host cells were seeded at 1.2 x 10^6 cells in 75 cm^2 or 4 x 10^5 cells in 25 cm^2 flasks and grown for 24 hours before parasite addition. Parasites were added at a multiplicity of infection (MOI) of 10:1 and incubated for 24 hours before non-infected trypomastigotes were washed off the host cell bed with PBS supplemented with Ca^2+ and Mg^2+ (Thermo Fisher Scientific, USA). Incubation was continued for a further 3 days, until tissue culture trypomastigotes began to egress from host cells. Egressed parasites were used for assays or to continue the infective life cycle in vitro.
(§2) The activity of the nucleoside analogues against T. cruzi intracellular amastigotes following 24, 48 hours exposure and compound wash off, was determined using image-based techniques as previously described. Briefly, 14-point serial dilutions of the compounds in 100% DMSO were prepared and then further diluted in sterile water at a ratio of 1:21 compound: water. Five microliters of the diluted compounds were added to wells of T. cruzi infected host cells, using a MiniTrak compound handling device (Perkin Elmer, USA) with final concentrations in the plate ranging from 183 μM to 4.6 x 10^−4 μM. All experiments were performed with two separate biological replicates.
IC50 values for inhibitory activity of both the nucleoside analogues tested as DNA probes and known inhibitors tested to determine their effect on replication of T. cruzi were calculated in GraphPad Prism 5, using sigmoidal dose response with variable slope. […] The p-value for difference in the % activity at Emax concentrations for compounds with known activity (EdU identified parasites, compared to Hoechst identified parasites) against T. cruzi was determined using GraphPad Prism 5, using an unpaired student’s t-test. […] The Emax for each compound was at least two data points in from the beginning of the plateau of activity in the IC50 curve, as previously described.

HEK293 cells = experiment: Redox-based assay to assess HEK293 viability; assay type: cell-based, human; details: 48 hours exposure, highest test concentration 87 μM, EdU value estimated, relative to Emax plateau of 57%
Procedure: To determine the effect of the nucleoside analogues against a replicating mammalian cell line, analogues were tested against HEK293 cells, utilising a REDOX-based metabolic assay to assess cell viability as previously described. […] Experiments were performed over two biological replicates.

3T3 cells = experiment: Image-based assay, effect on 3T3 host cells; assay type: cell-based; details: 48 h, highest test concentration 183 μM
Procedure: as §1
as §2, with “The activity of the nucleoside analogues against T. cruzi intracellular amastigotes following 24, 48 hours exposure and compound wash off, was determined using image-based techniques as previously described.” left out
Image analysis was performed with a script developed in Columbus software (CHEMICAL LABEL INCORPORATION SCRIPT). Control wells were also imaged at an increased, 60x magnification to show the distribution of staining and the structure of the parasites within host cells. Eight background control wells consisted of infected host cells, fixed and exposed to Hoechst and the click chemistry cocktail, without the addition of the chemical probe EdU. […] The percentage activity of compounds against parasite number / infected cells (identified with Hoechst) was calculated against a positive control of 12 μM of NFX for the parasite and 30 μM of PURO the host cells; and a negative control of 0.47% DMSO. All images taken were not modified and were taken on an Opera, confocal image-based reader.

T. cruzi amastigote DNA = experiment: Incorporation of pyrimidine nucleoside analogues into T. cruzi amastigote DNA (click chemistry, colocalisation with Hoechst); assay type: cell-based, Trypanosoma cruzi; details: for incorporation (no incorporation observed): concentrations up to a maximum of 73 μM
Procedure: T. cruzi infected 3T3 fibroblasts were initially exposed to nucleoside analogues for 48 hours at concentrations ranging from 73 μM to 1.8 x10^-4 μM. Host cell, parasite and compound additions were carried out as previously described. Cells were then stained using a click chemistry azide cocktail, followed by Hoechst to identify nuclear material, as previously reported. The freshly prepared azide cocktail consisted of a final concentration of 5 μM of Alexa Fluor 488 azide (Thermo Fisher Scientific, USA), 1 mM copper sulfate (Sigma Aldrich, USA) and 100 mM sodium ascorbate (Sigma Aldrich, USA), in DPBS. Wells were imaged on an Opera image-based reader (Perkin Elmer, USA) at 20x magnification with 405 nm (defined as Hoechst channel) and 488 nm (defined as Alexa 488 channel) lasers using filter sets/bandwidth (emission) of 450/50 nm and 540/75 nm, respectively. To determine nucleoside analogue incorporation into T. cruzi amastigote DNA, a script was developed utilising the Columbus (PerkinElmer, USA) image-based analysis and data handling platform (CHEMICAL LABEL INCORPORATION SCRIPT). Nucleoside analogues were also tested for DNA incorporation following 2, 4 and 24 hours exposure, at the same concentrations. All experiments were performed in duplicate. The colocalisation of nucleoside analogues and Hoechst (replicating parasites) at each time point (48, 4 and 2 hours) was compared using GraphPad Prism 5.
A CHEMICAL LABEL INCORPORATION SCRIPT developed in Columbus firstly identified Hoechst stained parasites within host cells by spot analysis, utilizing the same building block analysis as we had previously developed to determine T. cruzi infected cells. The physical definition of amastigote DNA was identified by Hoechst, with the only modification being that as there was no cytoplasmic marker, thus segmentation borders in the Hoechst channel were applied, which effectively separated host cells (Fig 2). Further building blocks were added to calculate the intensity of Alexa Fluor 488 within the spots identified by Hoechst, in infected cells. This script was first applied to images to determine the mean fluorescence intensity in the Alexa 488 channel of Hoechst identified parasites, without the addition of the chemical label. The mean plus three times the standard deviation of this intensity was used to define values above background, thus the minimum intensity above background required to identify parasite DNA which successfully incorporated the chemical label. An input box was incorporated into the script, in which this minimum intensity above background was entered. Parameters of the developed script, “CHEMICAL LABEL INCORPORATION” are shown in S1 Table.
• Number of T. cruzi amastigote infected cells (≥5 parasites per cell, identified with Hoechst). • Number of Hoechst identified T. cruzi parasites (in infected cells). • Number of parasites incorporating chemical label (T. cruzi parasites with Alexa 488 intensity above background, in infected cells). • % chemical label incorporation. Alexa 488 spots in infected cells (above background) NO / Hoechst spots in infected cells NO *100 = Percentage colocalisation; where NO = number of objects. • Number of host cells.

[3] = Trypanosoma cruzi, then 0.37 μM EdU for 4 hours, number of EdU incorporating parasites, read-out: IC50 value Amastigotes (EdU)
[4] = Trypanosoma cruzi, number of Hoechst identified parasites in infected cells, read-out: IC50 value Amastigotes (Hoechst)
[5] = Trypanosoma cruzi, 48 hours exposure, well-established intracellular infection assay, mean ± SD, POSA value based on sub-optimal effect (Emax 75%), read-out: IC50 value Infected cells (Hoechst)
[6] = 24 hours exposure, highest test concentration 183 μM
[7] = 48 hours incubation, highest test concentration 183 μM
[8] = Trypanosoma cruzi, 48 h, 48 hours incubation

Row | Structure (SMILES) | IC50 [1, 3] | IC50 [1, 4] | IC50 [2, 5] | HEK293 IC50 value (HEK293 cells) | Host cell 3T3 IC50 value 48 h (3T3 cells) | incorporation into T. cruzi DNA following 48 hours incubation (in words) (T. cruzi amastigote DNA) | incorporation (no incorporation observed) (T. cruzi amastigote DNA; 48 hours) | T. cruzi 24 IC50 value [2, 6] | T. cruzi Wash off IC50 value [2, 7] | T. cruzi 48 IC50 value [2, 7] | inhibition at 183 µM [2, 8] | also measured
1 | O=C(Cn1ccnc1[N+](=O)[O-])NCc1ccccc1 [BZ, benznidazole] | 1290 ± 250 nM | 2800 ± 940 nM | 6700 ± 640 nM | – | – | – | – | – | – | – | – | inhibition at 127 µM ([1]; Trypanosoma cruzi, 2 h, read-out: mean inhibition of incorporation of EdU into the parasite DNA): 72 ± 8.7%
2 | C#Cc1cn([C@@H]2O[C@H](CO)[C@@H](O)[C@@H]2Br)c(=O)[nH]c1=O [Br-ara-EdU, (2′S)-2′-bromo-2′-deoxy-5-ethynyl-uridine] | – | – | – | NA (NA = ≤50% activity at the highest concentration tested and an IC50 value could not be determined) | NA (NA = ≤50% activity at the highest concentration tested and an IC50 value could not be determined) | did not | < 20% | NA (NA = ≤50% activity at the highest concentration tested and an IC50 value could not be determined) | NA (NA = ≤50% activity at the highest concentration tested and an IC50 value could not be determined) | NA (NA = ≤50% activity at the highest concentration tested and an IC50 value could not be determined) | ≤ 50% | –
3 | C#Cc1cn([C@@H]2O[C@H](CO)[C@@H](O)[C@@H]2Cl)c(=O)[nH]c1=O [Cl-ara-EdU, (2′S)-chloro-2′-deoxy-5-ethynyl-uridine] | – | – | – | NA (NA = ≤50% activity at the highest concentration tested and an IC50 value could not be determined) | NA (NA = ≤50% activity at the highest concentration tested and an IC50 value could not be determined) | did not | < 20% | NA (NA = ≤50% activity at the highest concentration tested and an IC50 value could not be determined) | NA (NA = ≤50% activity at the highest concentration tested and an IC50 value could not be determined) | NA (NA = ≤50% activity at the highest concentration tested and an IC50 value could not be determined) | ≤ 50% | –
4 | C#Cc1cn([C@@H]2O[C@H](CO)[C@@H](O)[C@@H]2F)c(=O)[nH]c1=O [F-ara-EdU, (2S′)-2′-deoxy-2′-fluoro-5-ethynyl-uridine] | – | – | – | NA (NA = ≤50% activity at the highest concentration tested and an IC50 value could not be determined) | NA (NA = ≤50% activity at the highest concentration tested and an IC50 value could not be determined) | incorporated | – | NA (NA = ≤50% activity at the highest concentration tested and an IC50 value could not be determined) | NA (NA = ≤50% activity at the highest concentration tested and an IC50 value could not be determined) | NA^3 (NA = ≤50% activity at the highest concentration tested and an IC50 value could not be determined) | ≤ 50% | incorporation into parasite DNA following 2 hours exposure (T. cruzi amastigote DNA; 2 hours exposure): No incorporation; % of T. cruzi parasites with incorporation (T. cruzi amastigote DNA; 4 hours, 73 μM): 36 ± 7.3%; % of parasites with analogue incorporated (T. cruzi amastigote DNA; 48 hours, top concentration 73 μM): 91 ± 0.23%; inhibition at 73 µM ([2]; Trypanosoma cruzi, 48 h, 73 μM, 48 hours incubation, read-out: inhibition / activity against T. cruzi amastigotes at 73 μM): < 50%
5 | CC[C@@H]([C@H](C)O)n1ncn(-c2ccc(N3CCN(c4ccc(OC[C@@H]5CO[C@@](Cn6cncn6)(c6ccc(F)cc6F)C5)cc4)CC3)cc2)c1=O [POSA, posaconazole] | 3.8 ± 1 nM | 3.8 ± 1 nM | 4 ± 8.2 nM | – | – | – | – | – | – | – | – | inhibition of EdU incorporation ([1]; 2 hours exposure, 1 μM (250 x the IC50 value), then 1.83 μM EdU 2 hours): no inhibition; Emax ([2]; Trypanosoma cruzi, 48 hours, infected cells (Hoechst), read-out: maximum activity (Emax) against T. cruzi): 75%
6 | COc1ccc(C[C@H](N)C(=O)N[C@H]2[C@@H](O)[C@H](n3cnc4c(N(C)C)ncnc43)O[C@@H]2CO)cc1 [PURO, puromycin] | – | – | – | – | – | – | – | – | – | – | – | IC50 (HEK293 cells; Homo sapiens, HEK293): 410 ± 170 nM; IC50 (3T3 cells; Mus musculus, NIH3T3, read-out: Host cell 3T3 IC50 value 48 h): 4400 ± 800 nM; IC50 ([2]; Trypanosoma cruzi, 24 hours exposure, highest test concentration 183 μM, read-out: T. cruzi 24 IC50 value): 7600 ± 1200 nM; Emax ([2]; Trypanosoma cruzi, 24 hours exposure, read-out: T. cruzi 24 relative Emax (in brackets) (converted)): 92%; IC50 ([2]; Trypanosoma cruzi, 48 hours incubation, highest test concentration 183 μM, read-out: T. cruzi 48 IC50 value): 2360 ± 780 nM; Emax ([2]; Trypanosoma cruzi, 48 hours incubation, read-out: T. cruzi 48 relative Emax (in brackets) (converted)): 100%
